The structures appear in SMILES notation. Square brackets hold non-standard residues; d marks the D form. Peptide text beside a SMILES is read from it. * marks the point of attachment. ξ: configuration not given here. 1Nal = N[C@@H](Cc1cccc2ccccc12)C(=O)O; ξR = N=C(N)NCCCC(N)C(=O)O; Boc = CC(C)(C)OC(=O)*; ξP = O=C(O)C1CCCN1

By IC50 is commonly meant the concentration that gives 50% inhibition. Read a high IC50 as lower potency. As a reminder, the kcat/Km is the second-order rate constant that governs catalysis at low substrate concentration.

The target in assay [1] is Thrombin and coagulation factor X (Homo sapiens) (UniProt P00734+P00742). Nature of the assay: Ratio of factor Xa inhibitory activity to that of factor IIa inhibitory activity. It is filed as protein assay.
The nature of assay [2]: Inhibitory activity against prothrombinase complex (IIase).
For assay [3], the target named is Prothrombin (Homo sapiens, UniProt P00734). Nature of the assay: Inhibitory activity against coagulation factor II (thrombin).
Assay [4] concerns the target Coagulation factor X (Homo sapiens, UniProt P00742). The experiment in a line: Inhibitory activity against coagulation factor X.
Assay [5] addresses Coagulation factor X (Bos taurus, UniProt P00743). The experiment in a line: Second-order rate of substrate hydrolysis (kcat/Km) by bovine coagulation factor X.

Sequence of Coagulation factor X (Homo sapiens, UniProt P00742) (P00742 41-179 limits assumed): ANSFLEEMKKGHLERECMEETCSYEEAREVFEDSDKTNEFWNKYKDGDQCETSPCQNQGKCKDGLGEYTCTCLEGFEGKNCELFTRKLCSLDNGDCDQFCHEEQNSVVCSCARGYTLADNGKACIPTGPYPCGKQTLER
Sequence of Coagulation factor X (Homo sapiens, UniProt P00742) (P00742 235-488 limits assumed): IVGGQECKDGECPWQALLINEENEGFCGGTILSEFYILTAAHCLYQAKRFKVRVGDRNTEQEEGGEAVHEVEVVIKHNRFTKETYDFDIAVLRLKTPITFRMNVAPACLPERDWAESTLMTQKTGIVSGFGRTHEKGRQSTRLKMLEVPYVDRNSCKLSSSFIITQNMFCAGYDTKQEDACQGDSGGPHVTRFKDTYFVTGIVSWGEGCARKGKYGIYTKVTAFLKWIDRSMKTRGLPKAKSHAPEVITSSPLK
Sequence of Thrombin and coagulation factor X (Homo sapiens) (P00742 whole entry, looked up, other chains not shown): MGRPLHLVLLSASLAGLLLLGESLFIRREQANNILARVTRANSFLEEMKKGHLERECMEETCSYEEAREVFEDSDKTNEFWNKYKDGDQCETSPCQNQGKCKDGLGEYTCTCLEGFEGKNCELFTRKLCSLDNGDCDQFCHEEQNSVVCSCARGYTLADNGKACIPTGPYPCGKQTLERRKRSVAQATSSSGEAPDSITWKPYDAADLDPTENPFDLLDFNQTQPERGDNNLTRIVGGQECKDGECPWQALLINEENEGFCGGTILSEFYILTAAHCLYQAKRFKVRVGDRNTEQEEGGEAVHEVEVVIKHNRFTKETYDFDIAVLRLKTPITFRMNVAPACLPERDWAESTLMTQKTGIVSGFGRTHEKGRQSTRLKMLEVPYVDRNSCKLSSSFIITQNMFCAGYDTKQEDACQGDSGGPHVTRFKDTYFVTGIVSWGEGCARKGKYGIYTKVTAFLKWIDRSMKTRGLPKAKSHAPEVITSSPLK
Sequence of Coagulation factor X (Bos taurus, UniProt P00743) (P00743 41-180 limits assumed): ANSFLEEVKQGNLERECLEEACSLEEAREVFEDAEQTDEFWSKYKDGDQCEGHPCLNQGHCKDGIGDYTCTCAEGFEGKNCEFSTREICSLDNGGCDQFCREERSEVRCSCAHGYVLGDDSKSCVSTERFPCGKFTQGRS
Sequence of Coagulation factor X (Bos taurus, UniProt P00743) (P00743 234-492 limits assumed): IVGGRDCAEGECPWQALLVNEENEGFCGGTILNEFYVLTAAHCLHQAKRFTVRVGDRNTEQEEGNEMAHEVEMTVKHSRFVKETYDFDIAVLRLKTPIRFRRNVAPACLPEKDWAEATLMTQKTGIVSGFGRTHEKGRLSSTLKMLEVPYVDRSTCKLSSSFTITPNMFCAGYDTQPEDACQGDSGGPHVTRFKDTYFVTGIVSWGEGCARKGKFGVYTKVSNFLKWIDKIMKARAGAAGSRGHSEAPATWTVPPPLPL

Consider `C/N=C(\N(C)C)N(C)CCCC[C@H](NC(=O)OC(C)(C)C)C(=O)NCC(=O)NC(C=O)CCCN=C(N)N` (some centres undefined), for which, in assay [1], the Ratio was determined as 30. This compound registered an IC50 in assay [2] of 12 µM.
Take `C/N=C(\N(C)C)N(C)CCCC[C@H](NC(=O)OC(C)(C)C)C(=O)NCC(=O)NC(C=O)CCCNC(=N)N` (some centres undefined): the figures for the IC50 in assay [3] and in assay [4] were > 100 µM and 3 µM, respectively.
`N=C(N)NCCCC(C=O)NC(=O)CNC(=O)[C@H](CCCN=C(N)N)NS(=O)(=O)CCc1ccccc1` (some centres undefined): in assay [1], the Ratio came out at 2300. The IC50 in assay [2] stood at 0.038 µM.
As for `N=C(N)NCCCC(C=O)NC(=O)CNC(=O)[C@H](CCCNC(=N)N)NS(=O)(=O)CCc1ccccc1` (some centres undefined), the IC50 in assay [3] worked out at 64 µM; in assay [4] it was 0.028 µM.
The compound `N=C(N)NCCCC(C=O)NC(=O)CNC(=O)[C@H](CCCNC(=N)N)NS(=O)(=O)Cc1ccccc1` (some centres undefined) registered an IC50 in assay [3] of 50 µM.
As to `N=C(N)NCCCC(C=O)NC(=O)CNC(=O)[C@H](CCCNC(=N)N)NS(=O)(=O)CCc1cccc2ccccc12` (some centres undefined), the IC50 was determined as 39 µM in assay [3], 0.02 µM in assay [2] and 0.027 µM in assay [4]. For the same compound, the Ratio in assay [1] came to 1500.
For the compound `CN(CC(=O)NC(C=O)CCCN=C(N)N)C(=O)[C@H](CCCN=C(N)N)NS(=O)(=O)Cc1ccccc1` (some centres undefined), the Ratio in assay [1] was found to be 100. In assay [2], this compound had an IC50 of 0.058 µM.
`CN(CC(=O)NC(C=O)CCCNC(=N)N)C(=O)[C@H](CCCNC(=N)N)NS(=O)(=O)Cc1ccccc1` (some centres undefined): the IC50 in assay [3] came to 2 µM; in assay [4], 0.02 µM.
With `CC(C)(C)OC(=O)N[C@@H](CCCNC(=N)N)C(=O)NCCC(=O)NC(C=O)CCCNC(=N)N` (some centres undefined), in assay [3], the IC50 was > 500 µM.
With `N=C(N)NCCCC(C=O)NC(=O)CNC(=O)[C@H](CCCNC(=N)N)NC(=O)COc1ccc2ccccc2c1` (some centres undefined), the IC50 in assay [3] is > 100 µM.
On to `CC(C)(C)OC(=O)N[C@@H](CCCN=C(N)N)C(=O)N1CCC[C@H]1C(=O)NC(C=O)CCCN=C(N)N` (stereo partly drawn) (Boc-Arg-Pro-[ξR]-aldehyde), for which the IC50 is > 500 µM in assay [3], 440 µM in assay [2] and 60 µM in assay [4]. The Ratio in assay [1] is 8.
Regarding `CC(C)(C)OC(=O)N[C@@H](CCCN=C(N)N)C(=O)N[C@@H](Cc1cccc2ccccc12)C(=O)NC(C=O)CCCN=C(N)N` (stereo partly drawn) (Boc-Arg-[1Nal]-[ξR]-aldehyde), the Ratio in assay [1] worked out at 300. Besides, it took 0.34 µM to reach half-maximal inhibition in assay [2] (IC50).
For the compound `CC(C)(C)OC(=O)N[C@@H](CCCNC(=N)N)C(=O)N[C@@H](Cc1cccc2ccccc12)C(=O)NC(C=O)CCCNC(=N)N` (stereo partly drawn) (Boc-Arg-[1Nal]-[ξR]-aldehyde), the IC50 in assay [3] amounted to 42 µM; in assay [4], 0.14 µM.
For the compound `CC(C)(C)OC(=O)N[C@@H](CCCN=C(N)N)C(=O)N1CCCC1C(=O)NC(C=O)CCCN=C(N)N` (stereo partly drawn) (Boc-Arg-[ξP]-[ξR]-aldehyde), the Ratio in assay [1] turned out to be 4. The same compound returned an IC50 in assay [2] of 0.021 µM.
Take `CC(C)(C)OC(=O)N[C@@H](CCCNC(=N)N)C(=O)N1CCCC1C(=O)NC(C=O)CCCNC(=N)N` (stereo partly drawn) (Boc-Arg-[ξP]-[ξR]-aldehyde): the figures for the IC50 in assay [3] and in assay [4] were 0.2 µM and 0.046 µM, respectively.
Regarding `N=C(N)NCCC[C@H](NC(=O)CNC(=O)[C@@H](CCCNC(=N)N)NC(=O)OCc1ccccc1)C(=O)Nc1ccc([N+](=O)[O-])cc1` (HELM PEPTIDE1{[O=C(OCc1ccccc1)[*:2]].[dR].G.R.[O=[N+]([O-])c1ccc(N[*:1])cc1]}$$$$V2.0), the specificity constant (kcat/Km) in assay [5] came out at 2.27e+06 M⁻¹ s⁻¹.
Still for that read-out and setting: for `CC[C@H](C)[C@H](NC(=O)c1ccccc1)C(=O)N[C@@H](CCC(=O)O)C(=O)NCC(=O)N[C@@H](CCCN=C(N)N)C(=O)Nc1ccc([N+](=O)[O-])cc1` (HELM PEPTIDE1{[O=C(c1ccccc1)[*:2]].I.E.G.R.[O=[N+]([O-])c1ccc(N[*:1])cc1]}$$$$V2.0) the value was 350000 M⁻¹ s⁻¹.
On to `CC(C)(C)OC(=O)NC(CCCN=C(N)N)C(=O)NC(C)(C)C(=O)N[C@H](C=O)CCCN=C(N)N` (single isomer, unassigned), for which the concentration for half-maximal inhibition (IC50) in assay [3] is > 500 µM.
As to `CC(C)(C)OC(=O)NC(CCCCN=C(N)N)C(=O)NCC(=O)N[C@H](C=O)CCCN=C(N)N` (single isomer, unassigned), the values for the concentration for half-maximal inhibition (IC50) in assay [3] and in assay [2] were 400 µM and 0.17 µM, respectively. Besides, in assay [1], the Ratio is 4000.
In the case of `CC(=N)NCCCC(NC(=O)OC(C)(C)C)C(=O)NCC(=O)N[C@H](C=O)CCCN=C(N)N` (single isomer, unassigned), the figures for the IC50 in assay [3], in assay [2] and in assay [4] were 88 µM, 10 µM and 1 µM, respectively. In addition, the Ratio in assay [1] was 88.
On to `CC(C)(C)OC(=O)NC(CCCNC(N)=O)C(=O)NCC(=O)N[C@H](C=O)CCCN=C(N)N` (single isomer, unassigned), for which, in assay [3], the IC50 is > 100 µM.
Consider `CC(C)(C)OC(=O)NC(CCCN)C(=O)NCC(=O)N[C@H](C=O)CCCN=C(N)N` (single isomer, unassigned), for which the concentration for half-maximal inhibition (IC50) is > 500 µM in assay [3], 65 µM in assay [2] and 12 µM in assay [4]. Further, the Ratio in assay [1] turned out to be 42.
As to `N=C(N)NCCCC(NC(=O)CC(=O)O)C(=O)NCC(=O)N[C@H](C=O)CCCNC(=N)N` (single isomer, unassigned), the figures for the IC50 in assay [3] and in assay [4] were > 100 µM and 0.1 µM, respectively.
Take `N=C(N)NCCCC(NC(=O)CCC(=O)O)C(=O)NCC(=O)N[C@H](C=O)CCCNC(=N)N` (single isomer, unassigned): the IC50 in assay [3] was > 100 µM.
In the case of `N=C(N)NCCCC(NC(=O)CCc1ccccc1)C(=O)NCC(=O)N[C@H](C=O)CCCNC(=N)N` (single isomer, unassigned), the Ratio in assay [1] stood at 375. This compound also gave an IC50 in assay [2] of 2 µM.
`N=C(N)NCCC[C@@H](C=O)NC(=O)CNC(=O)C(CCCN=C(N)N)NC(=O)NCc1ccccc1` (single isomer, unassigned): the 50% inhibitory concentration (IC50) in assay [3] worked out at 170 µM; in assay [2], 0.18 µM; in assay [4], 0.22 µM. Further, the Ratio in assay [1] was determined as 770.
Consider `CCOC(=O)NC(CCCN=C(N)N)C(=O)NCC(=O)N[C@H](C=O)CCCN=C(N)N` (single isomer, unassigned), for which the IC50 in assay [3] was > 100 µM; in assay [4] it was 0.03 µM.
Take `NC(N)=NCCCC(N)C(=O)NCC(=O)N[C@H](C=O)CCCN=C(N)N` (single isomer, unassigned): the IC50 in assay [3] came out at 55 µM; in assay [2], 0.828 µM; in assay [4] it was 0.19 µM. In addition, the Ratio in assay [1] is 290.
For `CC(C)(C)OC(=O)NC(CCCCN)C(=O)NCC(=O)N[C@H](C=O)CCCN=C(N)N` (single isomer, unassigned), the 50% inhibitory concentration (IC50) in assay [3] is > 100 µM.
For `N=C(N)NCCCC(NC(=O)C(=O)O)C(=O)NCC(=O)N[C@H](C=O)CCCNC(=N)N` (single isomer, unassigned), the concentration for half-maximal inhibition (IC50) in assay [2] is 0.63 µM.
For `CC(C)(C)OC(=O)NC(CCCN=C(N)N)C(=O)NCC(=O)N[C@H](C=O)CCCN=C(N)N` (single isomer, unassigned; 4), the midpoint of inhibition in assay [4], the IC50, lay at 2 µM. In other words, the single-digit micromolar range.

The values are drawn from ChEMBL document CHEMBL1132850, “Design, synthesis and structure-activity relationship of a series of arginine aldehyde factor Xa inhibitors. Part 1: structures based on the (D)-Arg-Gly-Arg tripeptide sequence” (Bioorg Med Chem Lett, 2000).
